Reference: US20180132485A1, “USE OF HYDROXYAPATITE AS A CARRIER OF NUTRITIONAL ELEMENTS AND VEGETAL EXTRACTS FOR TREATING PLANTS” (NDG NATURAL DEVELOPMENT GROUP S.R.L., priority 2015, published 2018)

Test system: Agrobacterium vitis
Assay: Inhibition of growth of Agrobacterium vitis strains on PDA plates (diameters of inhibitory zones)
Assay type: cell-based
Conditions: 3% v/v; 6 strains; 28° C., 2-5 days
Description: The biological efficacy of the test agents was determined in terms of inhibition of the growth. To this aim 6 strains of Agrobacterium vitis from different growing areas worldwide, were grown in vitro. The strains of A. vitis, were inoculated on Petri dishes containing PDA (Potato Dextrose Agar), in the ratio of approximately 10 to 8 cells. After plating the bacteria, 5 holes (6 mm) were drilled in the substrate (one at the center of the plate and 4 equally spaced around the central hole). Each plate was filled with 20 microliters of test substance at the concentrations indicated; for each substance and concentration, 3 replies were set up. The central hole was filled with 20 microliters of sterile water, which represented the untreated control. The plates were incubated at 28° C., for 2-5 days.
After the expiration of the incubation period, for each tested strain and for each substance and concentration, the diameters of the inhibitory zones were considered (average of two orthogonal diameters of each inhibitory area). The collected data were subjected to analysis of variance ANOVA and comparison of averages with SNK test.

For `OCl` [Sodium Hypochlorite], the “inhibition of the growth (inhibitory zones)” value was “completely inhibited”.
